Measured values from US9645147B2, “Recombinant polypeptide construct comprising Plasmodium falciparum circumsporozoite protein HLA class I restricted T-cell epitopes” (priority 2013, dated 2017).
Entries after “also recorded” stand apart in the source; their conditions may differ. Peptide text beside a SMILES is read from it.

Tests used:
Assay type in all cases: cell-based, human
[1] = system: PBMC from volunteers immunized with Ad-CA or Ad-C; experiment: IFN-γ ELISpot assay with cryopreserved PBMC of immunized volunteers; settings: for Epitope sfc/m: Table 4; for ELISpot response to synthesized epitope (in words): volunteers, positive = p<0.05, at least doubling and at least ten sfc over negative control
Experimental: Previous studies have confirmed that recall-T cell responses, as assayed by ELISpot, are detected using cryopreserved PBMCs although such responses are generally of a lower magnitude than fresh cells (Sedegah, et al., Malar J., 9: 241 (2011)).
The positive control was commercially obtained Class I Peptide Pool Plus (Anaspec, USA). Negative control was media with all supplements but no antigen-specific stimulant.
Throughout the studies, IFN-γ ELISpot assays were conducted as previously described (Sedegah, et al., Malar J., 9: 241 (2011); Wang, et al., PNAS (USA), 98: 10817-22 (2001)). Cryopreserved PBMC were suspended in 100 μL complete medium and stimulated with CSP peptides in 100 μL of complete medium at a final concentration of 10 μg/mL of each peptide tested (Wang, et al., PNAS (USA), 98: 10817-22 (2001)).
Cultures were incubated for 36 hours at 37° C., 5% CO2. Depending on availability of cells, each PBMC sample was assayed in duplicate, triplicate, or quadruplicate and the number of IFN-γ-secreting spot forming cells (sfc) was counted using an automated ELISpot reader (AID, GmbH, Germany). In duplicate assays, all values were used in analysis. […] The mean number of sfcs obtained in negative control wells was subtracted from the value of each test well from the same sample. Negative counts generated by this background subtraction were converted to zero. The mean number of spots of the test sample was then calculated and expressed as spot forming cells/million (sfc/m). A positive response was defined as a significant difference (p=<0.05) between average of the number of spot forming cells (sfc) in test wells and the average of negative control wells (Student's two tailed t-test), and at least a doubling of sfc in test wells relative to negative control wells, and a difference of at least ten sfc between test and negative control wells (Sedegah, et al., PLoS One, 6: e24586 (2011)).

CD8+ T cells = experiment: Intracellular cytokine staining (ICS), IFN-γ, CD8+ population; settings: for ICS CD8+ T cell recall responses (in words): ICS assays, volunteers of Table 6; for CD8+ % (per cent of CD8+ T cells expressing IFN-γ): ICS, positive >0.03%
Experimental: (§1) Intracellular cytokine staining (ICS) was performed as published previously (Stewart, et al, Infect. Immun., 75: 2283-90 (2007)). Cryopreserved PBMC were thawed, washed, and resuspended at 10×10^6 cells per mL in complete medium. Peptides were used at 10 μg/mL and costimulatory antibodies anti-CD28 and […] (BD Bioscience, San Jose, Calif.) were used at 1 μg/mL. Stimulants were added to cells and incubated at 37° C. with 5% CO2 for 2 hours. Cells were stained with anti-CD3, anti-CD4, anti-CD8, anti-IFN-γ, anti-TNFα, and anti-IL2 and the entire available sample was acquired on a BD LSRII using FACSDiVa (BD Bioscience) software. Data were analyzed using FlowJo Software (Treestar, Inc.). The gating strategy involved progressively measuring total cells; viable cells; lymphocytes; T cells; CD4+ or CD8+ populations; and finally a specific cell type expressing a specific cytokine. Results were transferred to Prism (GraphPad) for graphing and statistical analysis. Data for peptides were corrected for media responses. A positive response was greater than the medium controls+3 standard deviations (0.03%).

[2] = system: PBMC depleted of T-cell subsets; experiment: ELISpot IFN-γ after T-cell subset depletion (CD4+ or CD8+ Dynabeads, mock control); settings: for confirmation as recalling CD8+ T cell responses: ELISpot depletion and ICS studies; for CD4+ depl. sfc/m: after CD4+ T cell depletion; for CD4+ depl. (%) percent change in ELISpot activity: after CD4+ T cell depletion vs control depletion; for CD8+ depl. sfc/m: after CD8+ T cell depletion; for CD8+ depl. (%) percent change in ELISpot activity: after CD8+ T cell depletion vs control depletion; for Control dept. sfc/m: mock (control) depletion; for percent reduction of ELISpot response after CD8+ T cell depletion: text summary over the four volunteers of Table 6
Text: For characterization of ELISpot IFN-γ-producing cells by T-cell subset depletions PBMC were depleted of T-cell subsets using anti-human CD4+ or anti-CD8+ coated Dynabeads M-450 (Dynal, Great Neck, N.Y.) following the manufacturer's instructions. Mock depletion was done with Dynabeads coated with sheep anti-mouse IgG. Flow cytometry confirmed that T-cell subset depletions were >99% in all experiments. Data are presented as the spot-forming cells/million (sfc/m) and percent decrease or increase in activity after depletion.
To further evaluate the predicted epitopes, ELISpot depletion assays were performed using PBMC from four volunteers stimulated with six predicted and tested epitopes. CD8+ T cell depletion reduced responses to Cp1 and Cp9 by 82%100%.

CD4+ T cells = experiment: Intracellular cytokine staining (ICS), IFN-γ, CD4+ population; settings: for ICS CD4+ T cell recall responses (in words): ICS assays, volunteers of Table 6; for CD4+ % (per cent of CD4+ T cells expressing IFN-γ): ICS, positive >0.03%
Experimental: as §1

[3] = volunteer 37 (Ad-C), synthesized epitope, second assay (second value of the cell)
[4] = volunteer 37 (Ad-C), synthesized epitope, single value or first of two assays
[5] = volunteer 40 (Ad-C), synthesized epitope, first of two assays
[6] = volunteer 40 (Ad-C), synthesized epitope, second assay (second value of the cell)

Row | Compound | Epitope sfc/m [1, 3] | Epitope sfc/m [1, 4] | Epitope sfc/m [1, 5] | Epitope sfc/m [1, 6] | ELISpot response to synthesized epitope (in words) [1] | ICS CD8+ T cell recall responses (in words) (CD8+ T cells) | CD8+ % (per cent of CD8+ T cells expressing IFN-γ) (CD8+ T cells; V40) | CD8+ % (per cent of CD8+ T cells expressing IFN-γ) (CD8+ T cells; V156) | confirmation as recalling CD8+ T cell responses [2] | CD4+ depl. sfc/m ([2]; V40) | CD4+ depl. (%) percent change in ELISpot activity ([2]; V40) | CD8+ depl. sfc/m ([2]; V40) | CD8+ depl. (%) percent change in ELISpot activity ([2]; V40) | Control dept. sfc/m ([2]; V40) | CD4+ depl. sfc/m ([2]; V156) | CD4+ depl. (%) percent change in ELISpot activity ([2]; V156) | CD8+ depl. sfc/m ([2]; V156) | CD8+ depl. (%) percent change in ELISpot activity ([2]; V156) | ICS CD4+ T cell recall responses (in words) (CD4+ T cells) | CD4+ % (per cent of CD4+ T cells expressing IFN-γ) (CD4+ T cells; V40) | also measured
1 | CC[C@H](C)[C@H](NC(=O)[C@@H](N)CC(C)C)C(=O)N[C@@H](CCSC)C(=O)N[C@H](C(=O)N[C@@H](CC(C)C)C(=O)N[C@@H](CO)C(=O)N[C@@H](Cc1ccccc1)C(=O)N[C@@H](CC(C)C)C(=O)N[C@@H](Cc1ccccc1)C(=O)O)C(C)C [Epitope E17a] (H-LIMVLSFLF-OH; N-terminus and C-terminus assumed) | 38 sfc/m | 55 sfc/m | 290 sfc/m | 166 sfc/m | recognized; also recorded: positive; also recorded: demonstrated activity | positive | 0.54% | 0.26% | confirmed as recalling CD8+ T cell responses | 210 sfc/m | −11% | 23 sfc/m | −90% | 236 sfc/m | 264 sfc/m | −18% | 85 sfc/m | −82% | negative | 0.02% | Control dept. sfc/m ([2]; V156): 307 sfc/m; CD4+ % (per cent of CD4+ T cells expressing IFN-γ) (CD4+ T cells; V156): 0.01%
2 | CC(C)C[C@H](NC(=O)[C@H](C)NC(=O)[C@H](CCC(=O)O)NC(=O)[C@@H](NC(=O)[C@H](Cc1ccccc1)NC(=O)[C@H](CC(C)C)NC(=O)[C@H](Cc1ccccc1)NC(=O)[C@@H](N)CO)C(C)C)C(=O)N[C@@H](Cc1ccccc1)C(=O)O [Epitope E20] (H-SFLFVEALF-OH; N-terminus and C-terminus assumed) | 53, 53 sfc/m | 53, 53 sfc/m | 313 sfc/m | 197 sfc/m | moderately positive; also recorded: demonstrated activity | positive | 0.37% | 0.25% | confirmed as recalling CD8+ T cell responses | 226 sfc/m | −11% | 15 sfc/m | −94% | 254 sfc/m | 273 sfc/m | +28% | 29 sfc/m | −86% | negative | 0.04% | Epitope sfc/m ([1]; volunteer 68 (Ad-C), synthesized 8-10mer epitope): 34 sfc/m; Epitope sfc/m ([1]; volunteer 156 (Ad-CA), synthesized 8-10mer epitope): 240 sfc/m; Control dept. sfc/m ([2]; V156): 213 sfc/m; CD4+ % (per cent of CD4+ T cells expressing IFN-γ) (CD4+ T cells; V156): 0.01%
3 | SVSSFLFVEA (listed as Plasmodium falciparum) [Epitope E19, CSP aa 9-18] |  |  |  |  | moderately active; also recorded: demonstrated activity | weakly positive |  |  | confirmed as recalling CD8+ T cell responses |  |  |  |  |  |  |  |  |  |  |  | Epitope sfc/m ([1]; volunteer 125 (Ad-CA), synthesized 8-10mer epitope): 33 sfc/m; CD8+ % (per cent of CD8+ T cells expressing IFN-γ) (CD8+ T cells; V125): 0.06%; CD4+ depl. sfc/m ([2]; V125): 17 sfc/m; CD4+ depl. (%) percent change in ELISpot activity ([2]; V125): −78%; CD8+ depl. sfc/m ([2]; V125): 72 sfc/m; CD8+ depl. (%) percent change in ELISpot activity ([2]; V125): −9%; Control dept. sfc/m ([2]; V125): 79 sfc/m; percent reduction of ELISpot response after CD8+ T cell depletion [2]: 9%; CD4+ % (per cent of CD4+ T cells expressing IFN-γ) (CD4+ T cells; V125): 0.02%
4 | VFNVVNSSI [Epitope E13a] |  |  | 104 sfc/m | 72 sfc/m | demonstrated activity | positive | 0.12% |  | confirmed as recalling CD8+ T cell responses | 43 sfc/m | −50% | 38 sfc/m | −56% | 86 sfc/m |  |  |  |  | negative | 0.01% | percent reduction of ELISpot response after CD8+ T cell depletion [2]: 56%
